Test results taken from patent US9125913B2, “Bcl-2-selective apoptosis-inducing agents for the treatment of cancer and immune diseases” (AbbVie Inc., priority 2008, dated 2015).

Test system: GST-Bcl-2
Test: TR-FRET binding assay, Bcl-2
Details: TR-FRET Ki values
Experimental: Tb-anti-GST antibody was purchased from Invitrogen (Catalog No. PV4216).
Representative compounds were serially diluted in dimethyl sulfoxide (DMSO) starting at 50 μM (2× starting concentration; 10% DMSO) and 10 μL were transferred into a 384-well plate.
The samples were then mixed on a shaker for 1 minute and incubated for an additional 3 hours at room temperature. For each assay, the probe/antibody and protein/probe/antibody were included on each assay plate as negative and positive controls, respectively. Fluorescence was measured on the Envision (Perkin Elmer) using a 340/35 nm excitation filter and 520/525 (F-Bak peptide) and 495/510 nm (Tb-labeled anti-Histidine antibody) emission filters.
The inhibition constant (Ki) is the dissociation constant of an enzyme-inhibitor complex or a protein/small molecule complex, wherein the small molecule is inhibiting binding of one protein to another protein or peptide. […] Inhibition constants were determined using Wang's equation (Wang Z-X., An Exact Mathematical Expression For Describing Competitive Binding Of Two Different Ligands To A Protein Molecule. FEBS Lett. 1995, 360:111-4).

Cn1ncc(-c2ccc(Cl)cc2)c1CN1CCN(c2ccc(C(=O)NS(=O)(=O)c3ccc(NCC4CCOCC4)c([N+](=O)[O-])c3)c(Oc3ccc4[nH]ccc4c3)c2)CC1 [EXAMPLE 285, 4-(4-{[4-(4-chlorophenyl)-1-methyl-1H-pyrazol-5-yl]methyl}piperazin-1-yl)-2-(1H-indol-5-yloxy)-N-({3-nitro-4-[(tetrahydro-2H-pyran-4-ylmethyl)amino]phenyl}sulfonyl)benzamide]
Binding selectivity ratio (Bcl-XL Ki/Bcl-2 Ki): >94.4

CC1(C)CCC(CN2CCN(c3ccc(C(=O)NS(=O)(=O)c4ccc(CCC5OCCO5)c([N+](=O)[O-])c4)c(Oc4ccc5[nH]ccc5c4)c3)CC2)=C(c2ccc(Cl)cc2)C1 [EXAMPLE 278, 4-(4-{[2-(4-chlorophenyl)-4,4-dimethylcyclohex-1-en-1-yl]methyl}piperazin-1-yl)-N-({4-[2-(1,3-dioxolan-2-yl)ethyl]-3-nitrophenyl}sulfonyl)-2-(1H-indol-5-yloxy)benzamide]
Binding selectivity ratio (Bcl-XL Ki/Bcl-2 Ki): >929.4

O=C(NS(=O)(=O)c1ccc(NCC2CCOCC2)c([N+](=O)[O-])c1)c1ccc(N2CCN(Cc3ccccc3-c3ccc(Cl)cc3)CC2)cc1Oc1cccnc1 [Example 79, 4-{4-[(4′-chloro-1,1′-biphenyl-2-yl)methyl]piperazin-1-yl}-N-({3-nitro-4-[(tetrahydro-2H-pyran-4-ylmethyl)amino]phenyl}sulfonyl)-2-(pyridin-3-yloxy)benzamide]
Binding selectivity ratio (Bcl-XL Ki/Bcl-2 Ki): 47.4

CN1CCC(Oc2ccc(S(=O)(=O)NC(=O)c3ccc(N4CCN(CC5=C(c6ccc(Cl)cc6)CC(C)(C)CC5)CC4)cc3Oc3ccc4[nH]ccc4c3)cc2[N+](=O)[O-])CC1 [EXAMPLE 353, 4-(4-{[2-(4-chlorophenyl)-4,4-dimethylcyclohex-1-en-1-yl]methyl}piperazin-1-yl)-2-(1H-indol-5-yloxy)-N-({4-[(1-methylpiperidin-4-yl)oxy]-3-nitrophenyl}sulfonyl)benzamide]
Binding selectivity ratio (Bcl-XL Ki/Bcl-2 Ki): >2260.0

CC1(C)CCC(CN2CCN(c3ccc(C(=O)NS(=O)(=O)c4cnc(O[C@@H]5CCN(C(CF)CF)C5)c(Cl)c4)c(Oc4cccc5[nH]ncc45)c3)CC2)=C(c2ccc(Cl)cc2)C1 [EXAMPLE 434, N-{[5-chloro-6-({(3R)-1-[2-fluoro-1-(fluoromethyl)ethyl]pyrrolidin-3-yl}oxy)pyridin-3-yl]sulfonyl}-4-(4-{[2-(4-chlorophenyl)-4,4-dimethylcyclohex-1-en-1-yl]methyl}piperazin-1-yl)-2-(1H-indazol-4-yloxy)benzamide]
Binding selectivity ratio (Bcl-XL Ki/Bcl-2 Ki): 1459

CC1(C)CCC(CN2CCN(c3ccc(C(=O)NS(=O)(=O)c4ccc(NC5CCN(C6CCOCC6)CC5)c([N+](=O)[O-])c4)c(Oc4ccc5[nH]ccc5c4)c3F)CC2)=C(c2ccc(Cl)cc2)C1 [EXAMPLE 185, 4-(4-{[2-(4-chlorophenyl)-4,4-dimethylcyclohex-1-en-1-yl]methyl}piperazin-1-yl)-3-fluoro-2-(1H-indol-5-yloxy)-N-({3-nitro-4-[(1-tetrahydro-2H-pyran-4-ylpiperidin-4-yl)amino]phenyl}sulfonyl)benzamide]
Binding selectivity ratio (Bcl-XL Ki/Bcl-2 Ki): 361.5

COCCN1CCC(Nc2ccc(S(=O)(=O)NC(=O)c3ccc(N4CCN(CC5=C(c6ccc(Cl)cc6)CC(C)(C)CC5)CC4)cc3Oc3cccc4[nH]ccc34)cc2[N+](=O)[O-])CC1 [EXAMPLE 194, 4-(4-{[2-(4-chlorophenyl)-4,4-dimethylcyclohex-1-en-1-yl]methyl}piperazin-1-yl)-2-(1H-indol-4-yloxy)-N-[(4-{[1-(2-methoxyethyl)piperidin-4-yl]amino}-3-nitrophenyl)sulfonyl]benzamide]
Binding selectivity ratio (Bcl-XL Ki/Bcl-2 Ki): 212.4

CC(c1ccccc1-c1ccc(Cl)cc1)N1CCN(c2ccc(C(=O)NS(=O)(=O)c3ccc(NCCCN4CCOCC4)c([N+](=O)[O-])c3)c(Oc3cccc4[nH]ccc34)c2)CC1 (centres unmarked) [EXAMPLE 247, 4-{4-[1-(4′-chloro-1,1′-biphenyl-2-yl)ethyl]piperazin-1-yl}-2-(1H-indol-4-yloxy)-N-({4-[(3-morpholin-4-ylpropyl)amino]-3-nitrophenyl}sulfonyl)benzamide]
Binding selectivity ratio (Bcl-XL Ki/Bcl-2 Ki): 145.3

CC1(C)CCC(CN2CCN(c3ccc(C(=O)NS(=O)(=O)c4ccc(OCC5(F)CCOCC5)c([N+](=O)[O-])c4)c(Oc4cccc5[nH]ccc45)c3)CC2)=C(c2ccc(Cl)cc2)C1 [EXAMPLE 306, 4-(4-{[2-(4-chlorophenyl)-4,4-dimethylcyclohex-1-en-1-yl]methyl}piperazin-1-yl)-N-({4-[(4-fluorotetrahydro-2H-pyran-4-yl)methoxy]-3-nitrophenyl}sulfonyl)-2-(1H-indol-4-yloxy)benzamide]
Binding selectivity ratio (Bcl-XL Ki/Bcl-2 Ki): 622

CC1(C)CCC(CN2CCN(c3ccc(C(=O)NS(=O)(=O)c4ccc(NC5CCN(S(C)(=O)=O)CC5)c([N+](=O)[O-])c4)c(Oc4cccc5[nH]ccc45)c3)CC2)=C(c2ccc(Cl)cc2)C1 [EXAMPLE 338, 4-(4-{[2-(4-chlorophenyl)-4,4-dimethylcyclohex-1-en-1-yl]methyl}piperazin-1-yl)-2-(1H-indol-4-yloxy)-N-[(4-{[1-(methylsulfonyl)piperidin-4-yl]amino}-3-nitrophenyl)sulfonyl]benzamide]
Binding selectivity ratio (Bcl-XL Ki/Bcl-2 Ki): >1637.7

COc1ccc(S(=O)(=O)NC(=O)c2ccc(N3CCN(Cc4ccccc4-c4ccc(Cl)cc4)CC3)cc2Oc2ccccc2)cc1 [Example 60, 4-{4-[(4′-chloro-1,1′-biphenyl-2-yl)methyl]piperazin-1-yl}-N-[(4-methoxyphenyl)sulfonyl]-2-phenoxybenzamide]
Binding selectivity ratio (Bcl-XL Ki/Bcl-2 Ki): >34.9

O=C(NS(=O)(=O)c1ccc(NCC2CCOCC2)c([N+](=O)[O-])c1)c1ccc(N2CCN(Cc3ccc(C(F)(F)F)cc3-c3ccc(Cl)cc3)CC2)cc1Oc1ccc2[nH]ccc2c1 [EXAMPLE 339, 4-(4-{[4′-chloro-5-(trifluoromethyl)-1,1′-biphenyl-2-yl]methyl}piperazin-1-yl)-2-(1H-indol-5-yloxy)-N-({3-nitro-4-[(tetrahydro-2H-pyran-4-ylmethyl)amino]phenyl}sulfonyl)benzamide]
Binding selectivity ratio (Bcl-XL Ki/Bcl-2 Ki): >46.7

CC1(C)CCC(CN2CCN(c3ccc(C(=O)NS(=O)(=O)c4ccc(NCCC#N)c([N+](=O)[O-])c4)c(Oc4cccc5[nH]ccc45)c3)CC2)=C(c2ccc(Cl)cc2)C1 [EXAMPLE 320, 4-(4-{[2-(4-chlorophenyl)-4,4-dimethylcyclohex-1-en-1-yl]methyl}piperazin-1-yl)-N-({4-[(2-cyanoethyl)amino]-3-nitrophenyl}sulfonyl)-2-(1H-indol-4-yloxy)benzamide]
Binding selectivity ratio (Bcl-XL Ki/Bcl-2 Ki): 103.6

CC1(C)CCC(CN2CCN(c3ccc(C(=O)NS(=O)(=O)c4ccc(N[C@H]5CC[C@H](N6CCOCC6)CC5)c([N+](=O)[O-])c4)c(Oc4cccc5[nH]ncc45)c3)CC2)=C(c2ccc(Cl)cc2)C1 [EXAMPLE 402, Trans-4-(4-{[2-(4-chlorophenyl)-4,4-dimethylcyclohex-1-en-1-yl]methyl}piperazin-1-yl)-2-(1H-indazol-4-yloxy)-N-({4-[(4-morpholin-4-ylcyclohexyl)amino]-3-nitrophenyl}sulfonyl)benzamide]
Binding selectivity ratio (Bcl-XL Ki/Bcl-2 Ki): 137.4
